Laboratory results reported in patent publication US20240262833A1, “FUSED HETEROCYCLIC DERIVATIVES AS NEGATIVE ALLOSTERIC MODULATORS OF MGLU7 RECEPTOR” (Addex Pharma S.A., priority 2021, published 2024).

Each compound was assayed against T1, human metabotropic glutamate 7 receptor (hmGlu7) (Homo sapiens, UniProt Q14831) (assay: mGlu7 assay on HEK-expressing human mGlu7: fluorescent cell based Ca2+ mobilization assay (FLIPR), inhibition of EC80 L-AP4 response). Conditions: HEK-293 cells expressing hmGlu7; EC80 L-AP4 stimulation; mean of at least three independent experiments in duplicate; read-out: Ca2+ Flux (mean IC50).
T1 construct: expressed in transfected cells
Text: mGlu7 Assay on HEK-Expressing Human mGlu7
The cDNA encoding the human metabotropic glutamate 7 receptor (hmGlu7), (accession number NM_181874.2, NCBI Nucleotide database browser), was subcloned into an expression vector containing also the hygromycin resistance gene. In parallel, the cDNA encoding a G protein allowing redirection of the activation signal to intracellular calcium flux was subcloned into a different expression vector containing also the Puromycin resistance gene. Transfection of both these vectors into HEK293 cells with PolyFect reagent (Qiagen) according to supplier's protocol, and hygromycin and puromycin treatment allowed selection of antibiotic resistant cells which had integrated stably one or more copies of the plasmids. Positive cellular clones expressing hmGlu7 were identified in a functional assay measuring changes in calcium fluxes in response to glutamate and L-AP4 or known mGlu7 orthosteric antagonists.
HEK-293 cells expressing hmGlu7 were maintained in media containing DMEM, Fetal Bovine Serum (10%), Glutamax™ (2 mM), penicillin (100 units/mL), streptomycin (100 μg/mL), geneticin (100 μg/mL) and hygromycin-B (40 μg/mL) and puromycin (1 μg/mL) at 37° C. with 5% CO2 in a humidified atmosphere.
Fluorescent Cell Based-Ca^2+ Mobilization Assay Human mGlu7 HEK-293 cells were plated out 24 hours prior to a fluorescent cell-based calcium mobilization assay using FLIPR^384 assay (Molecular Device, Sunnyvale, CA, USA) in black-walled, clear-bottomed, poly-L-ornithine-coated 384-well plates at a density of 25,000 cells/well in a glutamine/glutamate free DMEM medium containing fetal bovine serum (10%), penicillin (100 units/mL), streptomycin (100 μg/mL) and doxycyline (1 μg/ml) at 37° C. with 5% CO2 in a humidified atmosphere.
On the day of the assay, the medium was aspirated and the cells were loaded with a 3 μM solution of Fluo4-AM (LuBioScience, Lucerne, Switzerland) in 0.03% pluronic acid. After 1 hour at 37° C./5% CO2, the non incorporated dye was removed by washing cell plate with the assay buffer. All assays were performed in a pH 7.4 buffered-solution containing 20 mM HEPES, 143 mM NaCl, 6 mM KCl, 1 mM MgSO4, 1 mM CaCl2, 0.125 mM sulfinpyrazone and 0.1% glucose.
After 10 s of basal fluorescence recording, various concentrations of the compounds of the invention were added to the cells. Changes in fluorescence levels were first monitored for 180 s in order to detect any agonist activity of the compounds. Then the cells were stimulated by an EC80 L-AP4 concentration for an additional 110 s in order to measure inhibiting activities of the compounds of the invention. EC80 L-AP4 concentration is the concentration giving 80% of the maximal glutamate response.
The concentration-response curves of L-AP4 or representative compounds of the present invention were generated using the Prism GraphPad software (Graph Pad Inc, San Diego, USA). The curves were fitted to a four-parameter logistic equation: […]
allowing determination of IC50 values.
The Table 3 below represents the mean IC50 obtained from at least three independent experiments of selected molecules performed in duplicate.

T1 sequence (Q14831 35-922 isoform Q14831-2): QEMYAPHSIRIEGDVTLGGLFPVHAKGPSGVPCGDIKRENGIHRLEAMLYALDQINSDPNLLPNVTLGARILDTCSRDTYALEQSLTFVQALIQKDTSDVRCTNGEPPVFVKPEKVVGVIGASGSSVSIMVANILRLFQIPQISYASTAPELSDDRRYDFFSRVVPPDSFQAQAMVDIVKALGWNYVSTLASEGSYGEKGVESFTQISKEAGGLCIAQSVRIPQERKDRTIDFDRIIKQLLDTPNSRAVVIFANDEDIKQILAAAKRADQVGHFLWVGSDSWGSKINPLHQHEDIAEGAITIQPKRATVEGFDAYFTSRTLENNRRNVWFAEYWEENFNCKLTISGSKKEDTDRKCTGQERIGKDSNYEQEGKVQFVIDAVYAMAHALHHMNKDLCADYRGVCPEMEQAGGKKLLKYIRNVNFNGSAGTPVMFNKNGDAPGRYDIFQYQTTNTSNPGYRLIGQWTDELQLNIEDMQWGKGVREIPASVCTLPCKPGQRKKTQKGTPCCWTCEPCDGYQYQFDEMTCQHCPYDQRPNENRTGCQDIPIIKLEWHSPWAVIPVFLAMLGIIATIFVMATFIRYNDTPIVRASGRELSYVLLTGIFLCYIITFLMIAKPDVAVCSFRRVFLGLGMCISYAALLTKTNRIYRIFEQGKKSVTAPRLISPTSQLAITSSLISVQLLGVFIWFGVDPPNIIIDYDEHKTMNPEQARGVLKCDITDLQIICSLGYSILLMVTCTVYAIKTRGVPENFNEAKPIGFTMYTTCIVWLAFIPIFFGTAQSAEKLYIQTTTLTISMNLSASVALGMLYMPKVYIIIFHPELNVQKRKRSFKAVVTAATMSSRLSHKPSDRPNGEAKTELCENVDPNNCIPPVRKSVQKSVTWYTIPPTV

Row | SMILES | IC50
1 | Cc1cccc(-n2ncc3c(C)n(-c4cccc(N5CCOCC5)c4)c(C)c3c2=O)c1 [1-84] | 1000 to 10000 nM
2 | Cc1c2cnn(-c3ccc(S(=O)(=O)N(C)C)cc3)c(=O)c2c(C)n1-c1ccccc1 [1-87] | 100 to 1000 nM
3 | CCc1c2c(=O)n(-c3ccccc3)ncc2c(C)n1-c1cccc(OC)c1 [1-89] | 100 to 1000 nM
4 | COc1cccc(-n2c(C)c3cnn(-c4ccc(N5CCOCC5)nc4)c(=O)c3c2C)c1 [1-91] | 100 to 1000 nM
5 | Cc1c2cnn(-c3ccc(CO)cc3)c(=O)c2c(C)n1-c1ccccc1 [1-92] | 100 to 1000 nM
6 | Cc1c2cnn(-c3ccc(N4CCOCC4)cc3)c(=O)c2c(C)n1-c1ccccc1 [1-93] | 100 to 1000 nM
7 | COc1cccc(-n2c(C)c3cnn(-c4cncc(OC)c4)c(=O)c3c2C)c1 [1-94] | 100 to 1000 nM
8 | COc1cccc(-n2c(C)c3cnn(-c4cncnc4)c(=O)c3c2C)c1 [1-95] | 100 to 1000 nM
9 | COc1ccc(-n2ncc3c(C)n(-c4cccc(OC)c4)c(C)c3c2=O)cc1 [1-97] | < 100 nM
10 | COc1ccc(-n2c(C)c3cnn(-c4ccc(CO)cc4)c(=O)c3c2C)cc1 [1-98] | 100 to 1000 nM
11 | Cc1ccc(-n2c(C)c3cnn(-c4cccc(C)c4)c(=O)c3c2C)cc1 [1-99] | 100 to 1000 nM
12 | COc1ccc(-n2c(C)c3cnn(-c4ccc(OC)cc4)c(=O)c3c2C)cc1 [1-103] | 100 to 1000 nM
13 | CC(=O)NCc1ccc(-n2ncc3c(C)n(-c4ccccc4)c(C)c3c2=O)cc1 [1-104] | 100 to 1000 nM
14 | COC(=O)c1ccc(-n2ncc3c(C)n(-c4cccc(OC)c4)c(C)c3c2=O)cc1OC [1-105] | 100 to 1000 nM
15 | COc1ccc(-n2c(C)c3cnn(-c4ccc(CNC(C)=O)cc4)c(=O)c3c2C)cc1 [1-106] | 100 to 1000 nM
16 | COc1cccc(-n2c(C)c3cnn(-c4cccc(C(=O)N(C)C)c4)c(=O)c3c2C)c1 [1-112] | 100 to 1000 nM
17 | CNC(=O)c1ccc(-n2ncc3c(C)n(-c4cccc(OC)c4)c(C)c3c2=O)cc1 [1-113] | 100 to 1000 nM
18 | COc1cccc(-n2c(C)c3cnn(-c4cccc(CNC(C)=O)c4)c(=O)c3c2C)c1 [1-115] | 100 to 1000 nM
19 | COCc1cccc(-n2ncc3c(C)n(-c4cccc(OC)c4)c(C)c3c2=O)c1 [1-116] | < 100 nM

Row | SMILES | IC50
20 | COc1cccc(-n2c(C)c3cnn(-c4ccc(OC)c(OC)c4)c(=O)c3c2C)c1 [1-117] | 100 to 1000 nM
21 | COc1cccc(-n2c(C)c3cnn(-c4ccc(CCCO)cc4)c(=O)c3c2C)c1 [1-118] | < 100 nM
22 | COc1cccc(-n2c(C)c3cnn(-c4ccc(S(C)(=O)=O)cc4)c(=O)c3c2C)c1 [1-119] | < 100 nM
23 | COc1cccc(-n2c(C)c3cnn(-c4ccc(S(N)(=O)=O)cc4)c(=O)c3c2C)c1 [1-120] | < 100 nM
24 | COc1ccc(-n2c(C)c3cnn(-c4cccc(C#N)c4)c(=O)c3c2C)cc1 [1-125] | 100 to 1000 nM
25 | COCc1ccc(-n2ncc3c(C)n(-c4cccc(OC)c4)c(C)c3c2=O)cc1 [1-128] | 100 to 1000 nM
26 | COc1cccc(-n2c(C)c3cnn(-c4cc[nH]c(=O)c4)c(=O)c3c2C)c1 [1-129] | 100 to 1000 nM
27 | CCOc1cccc(-n2ncc3c(C)n(-c4cccc(OC)c4)c(C)c3c2=O)c1 [1-144] | < 100 nM
28 | COc1cccc(-n2c(C)c3cnn(-c4cccc(CC#N)c4)c(=O)c3c2C)c1 [1-146] | < 100 nM
29 | COc1cccc(-n2c(C)c3cnn(-c4cccc(C(C)=O)c4)c(=O)c3c2C)c1 [1-147] | 100 to 1000 nM
30 | Cc1c2cnn(-c3cccc(S(C)(=O)=O)c3)c(=O)c2c(C)n1-c1cccc(N2CCC2)c1 [1-151] | < 100 nM
31 | Cc1c2cnn(-c3cccc(C(N)=O)c3)c(=O)c2c(C)n1-c1cccc(N2CCC2)c1 [1-152] | 100 to 1000 nM
32 | Cc1c2cnn(-c3ccncc3)c(=O)c2c(C)n1-c1cccc(N2CCC2)c1 [1-156] | < 100 nM
33 | Cc1ccc(-n2ncc3c(C)n(-c4cccc(N5CCC5)c4)c(C)c3c2=O)cn1 [1-157] | < 100 nM
34 | Cc1cncc(-n2ncc3c(C)n(-c4cccc(N5CCC5)c4)c(C)c3c2=O)c1 [1-158] | < 100 nM
35 | Cc1cccnc1-n1ncc2c(C)n(-c3cccc(N4CCC4)c3)c(C)c2c1=O [1-159] | 100 to 1000 nM
36 | Cc1c2cnn(-c3ccc(C#N)cn3)c(=O)c2c(C)n1-c1cccc(N2CCC2)c1 [1-160] | < 100 nM
37 | COCCOc1ccc(-n2ncc3c(C)n(-c4cccc(N5CCC5)c4)c(C)c3c2=O)cc1 [1-162] | < 100 nM

Further lines, results first:

Row | IC50 | SMILES
38 | 100 to 1000 nM | CCc1cccc(-n2c(C)c3cnn(-c4ccccn4)c(=O)c3c2C)c1 [1-85]
39 | 100 to 1000 nM | CCc1ccc(-n2c(C)c3cnn(-c4ccccn4)c(=O)c3c2C)cc1 [1-86]
40 | 1000 to 10000 nM | Cc1c2cnn(-c3ccccn3)c(=O)c2c(C)n1-c1cccc(N2CCOCC2)c1 [1-90]
41 | 1000 to 10000 nM | Cc1c2cnn(-c3ccccn3)c(=O)c2c(C)n1-c1ccc2ccn(C)c2c1 [1-96, 5,7-Dimethyl-6-(1-methyl-1H-indol-6-yl)-2-(pyridin-2-yl)-2,6-dihydro-1H-pyrrolo[3,4-d]pyridazin-1-one]
42 | < 100 nM | Cc1c2cnn(-c3ccccn3)c(=O)c2c(C)n1-c1cccc(N2CCC2)c1 [1-102, 6-(3-(Azetidin-1-yl)phenyl)-5,7-dimethyl-2-(pyridin-2-yl)-2,6-dihydro-1H-pyrrolo[3,4-d]pyridazin-1-one]
43 | 1000 to 10000 nM | COCc1cccc(-n2c(C)c3cnn(-c4ccccn4)c(=O)c3c2C)c1 [1-107]
44 | 100 to 1000 nM | COCc1cccc(-n2c(C)c3cnn(-c4ccccc4)c(=O)c3c2C)c1 [1-108]
45 | 100 to 1000 nM | Cc1c2cnn(-c3ccccn3)c(=O)c2c(C)n1-c1cccc(N(C)C)c1 [1-110]
46 | 1000 to 10000 nM | Cc1c2cnn(-c3ccccn3)c(=O)c2c(C)n1-c1cccc(N2CCCC2=O)c1 [1-111]
47 | 100 to 1000 nM | COc1cccc(-n2c(C)c3cnn(-c4cccc(CO)c4)c(=O)c3c2C)c1 [1-114]
48 | < 100 nM | COc1cccc(-n2c(C)c3cnn(-c4ccnc(OC)c4)c(=O)c3c2C)c1 [1-121]
49 | 100 to 1000 nM | COc1cccc(-n2c(C)c3cnn(-c4ccc(C(F)(F)F)cn4)c(=O)c3c2C)c1 [1-122]
50 | 100 to 1000 nM | COc1cccc(-n2c(C)c3cnn(-c4cccc(C#N)c4)c(=O)c3c2C)c1 [1-124]
51 | 100 to 1000 nM | COc1cccc(-n2c(C)c3cnn(-c4ccc(OC)nc4)c(=O)c3c2C)c1 [1-127]
52 | < 100 nM | COc1cccc(-n2c(C)c3cnn(-c4cccc(OC)c4)c(=O)c3c2C)c1 [1-130]
53 | 1000 to 10000 nM | CC(=O)c1ccc(-n2c(C)c3cnn(-c4ccccn4)c(=O)c3c2C)cc1 [1-132]

Row | IC50 | SMILES
54 | < 100 nM | Cc1c2cnn(-c3ccccn3)c(=O)c2c(C)n1-c1cccc(-c2ccco2)c1 [1-136]
55 | 100 to 1000 nM | Cc1c2cnn(-c3ccccn3)c(=O)c2c(C)n1-c1cccc(C2CC2)c1 [1-137]
56 | 100 to 1000 nM | Cc1c2cnn(-c3ccccn3)c(=O)c2c(C)n1-c1cccc(OC(C)C)c1 [1-139]
57 | 1000 to 10000 nM | CCc1c2cnn(-c3ccccn3)c(=O)c2c(C)n1-c1cccc(OC)c1 [1-140]
58 | < 100 nM | Cc1c2cnn(-c3ccccc3)c(=O)c2c(C)n1-c1cccc(N2CCC2)c1 [1-141]
59 | < 100 nM | Cc1c2cnn(-c3ccccn3)c(=O)c2c(C)n1-c1cccc(-n2cccc2)c1 [1-142]
60 | < 100 nM | Cc1c2cnn(-c3ccccn3)c(=O)c2c(C)n1-c1cccc(N2CCCCC2)c1 [1-143]
61 | < 100 nM | COc1cccc(-n2c(C)c3cnn(-c4ccc(O)cc4)c(=O)c3c2C)c1 [1-145]
62 | 100 to 1000 nM | COc1cccc(-n2c(C)c3cnn(-c4ccccc4OC)c(=O)c3c2C)c1 [1-148]
63 | < 100 nM | COc1cccc(-n2c(C)c3cnn(-c4ccccc4F)c(=O)c3c2C)c1 [1-149]
64 | 100 to 1000 nM | COc1cccc(-n2c(C)c3cnn(-c4ccccc4Cl)c(=O)c3c2C)c1 [1-150]
65 | 100 to 1000 nM | Cc1c2cnn(-c3ccccn3)c(=O)c2c(C)n1-c1cccc(N2CC(F)(F)C2)c1 [1-153]
66 | 100 to 1000 nM | Cc1cccc(-n2ncc3c(C)n(-c4cccc(N5CCC5)c4)c(C)c3c2=O)n1 [1-154]
67 | < 100 nM | Cc1ccc(-n2ncc3c(C)n(-c4cccc(N5CCC5)c4)c(C)c3c2=O)nc1 [1-155]
68 | < 100 nM | Cc1ccnc(-n2ncc3c(C)n(-c4cccc(N5CCC5)c4)c(C)c3c2=O)c1 [1-161]
